Data from US20250122171A1, “Substituted Amine Compounds, Compositions and Methods of Use” (Deep Apple Therapeutics, Inc., priority 2023, published 2025).

Tests used:
[1] = test system: LAD-2 cells; test: LAD2 Degranulation Assay (Protocol 2), β-hexosaminidase release; format: cell-based; conditions: Homo sapiens; for activity at 0.25 µM: single point 250 nM, 0.5 μM Cortistatin-14, % control β-hexosaminidase activity; for IC50: 0.5 μM Cortistatin-14, 2 h preincubation, cells without SCF 18-24 hours, top concentration 3 μM
Experimental: LAD-2 cells were maintained at 37° C. with 5% CO2 and grown in complete StemPro-34 media supplemented with 1% L-Glutamate, 1% penicillin/streptomycin, and 250 ng/mL human SCF.
18-24 hours prior to experiment, LAD-2 cells were collected and transferred to growth media without SCF. On the day of experiment, cells were collected by centrifugation and seeded in 384-well assay plates, at 4,000 cells per well in 17 μl freshly made assay buffer (10 mM HEPES, 137 mM NaCl, 2.7 mM KCl, 1.8 mM CaCl2), 1.0 mM MgCl2, 5.6 mM glucose, 0.4 mM NaH2PO4, 0.04% BSA, pH=7.40). For dose-response assays, compounds solubilized in 100% DMSO at 30 mM were serially diluted (1:3) first in 100% DMSO, and 2 intermediate dilutions with assay buffer were used to establish a final top concentration of 3 μM (in assay plate). For single point assays, dilution of DMSO stocks to 250 nM (in assay plate) was performed in the same manner as described for dose-response assays. Final DMSO concentration was kept constant at 0.1% across plates for all assays. Cortistatin-14 at 30 mM stock concentration was solubilized in HBSS+0.1% BSA, stored at −20° C. in 5 μl aliquots and discarded after one freeze-thaw cycle. Final concentration of agonist used in both dose-response and single point assays was 0.5 μM, prepared in assay buffer.
Antagonist equilibrium was established with 2 h preincubation, followed by no wash, direct addition, and stimulation of agonist for 30 minutes at 37° C. For detection of β-hexosaminidase activity, assay plates were centrifuged and 5 μl of cell-free supernatant from each assay well was transferred to a black-walled black-bottomed 384-well plate. Substrate solution (1 mM 4-Methylumbelliferyl N-acetyl-β-D-glucosaminide in citrate buffer, pH=4.5, […]) was added to each well and plates were incubated for 1 hour at 37° C. The plate was read on an EnVision XCite plate reader for umbelliferone fluorescence intensity (λex=355 nm, λem=460 nm). Background-subtracted data was analyzed using either GraphPad Prism or a custom Python script to calculate IC50 using either Log[Antagonist] vs. response (4 parameter) nonlinear regression (dose-response assays) or % control β-hexosaminidase activity (single point assays).

[2] = molecular target: T1, human MRGPRX2 (Homo sapiens, UniProt Q96LB1); test: MRGPRX2 Activity Assay (IP-1 HTRF, antagonist mode); format: cell-based; conditions: FlpIn TRex-MRGPRX2-HEK293 cells; versus 1 μM Cortistatin-14 agonist; 30 minutes preincubation
T1 construct: expressed in transfected cells; host or cells: FlpIn TRex HEK293 (TRex-MRGPRX2-HEK), doxycycline-induced
T1 sequence (Q96LB1 1-330): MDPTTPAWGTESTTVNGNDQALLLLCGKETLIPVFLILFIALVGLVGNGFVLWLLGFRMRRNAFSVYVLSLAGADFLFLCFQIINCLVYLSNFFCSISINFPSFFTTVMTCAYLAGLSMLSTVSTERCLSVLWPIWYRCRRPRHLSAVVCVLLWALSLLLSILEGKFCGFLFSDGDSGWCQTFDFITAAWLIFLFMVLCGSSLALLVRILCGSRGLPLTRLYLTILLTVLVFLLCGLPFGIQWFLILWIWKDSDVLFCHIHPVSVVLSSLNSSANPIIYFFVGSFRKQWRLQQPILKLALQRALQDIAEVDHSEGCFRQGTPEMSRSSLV
How it was run: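 Doxycycline-induced (100 ng/mL, 18-24 h) TRex HEK293 cells stably expressing human MRGPRX2, in HBSS/20 mM HEPES/0.1% BSA/10 mM LiCl. Compounds (top final 30 uM, 1% DMSO) preincubated 30 min, then agonist stimulation 1 h at 37° C without wash. IP-1 accumulation read by HTRF; IC50 from 4-parameter fit.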

Structure (SMILES) | activity at 0.25 µM [1] | IC50 [1] | IC50 [2]
C[C@@H](C(=O)Nc1nc2n(n1)[C@@H](c1cc(F)cc(F)c1)CC2)N1CCC(F)(F)[C@@H](c2ccc(=O)[nH]c2)C1 (single isomer, unassigned) [Compound 501] | 101% | – | –
C[C@@H](C(=O)Nc1cn2c(n1)CC[C@@H]2c1cc(F)cc(F)c1)N1CCC(F)(F)CC1 (single isomer, unassigned) [Compound 509] | 11% | – | –
C[C@@H](C(=O)Nc1cn2c(n1)CC[C@@H]2c1cc(F)cc(F)c1)N1CCC(F)(F)[C@@H](c2c[nH]c(=O)c(C(N)C(F)(F)F)c2)C1 (single isomer, unassigned) [Compound 540] | 124% | – | –
C[C@@H](C(=O)Nc1cc2n(n1)CC[C@H]2c1cc(F)cc(F)c1)N1CCC(F)(F)[C@@H](c2ccc(=O)[nH]c2)C1 (single isomer, unassigned) [Compound 531] | – | 614 nM | 592 nM
C[C@@H](C(=O)Nc1cn2c(n1)CC[C@@H]2c1cc(F)cc(F)c1)N1CCC(F)(F)[C@H](c2c[nH]c(=O)c([C@H](N)C(F)F)c2)C1 (single isomer, unassigned) [Compound 537] | 10% | – | –
C[C@@H](C(=O)Nc1cn2c(n1)CCC[C@@H]2c1cc(F)cc(F)c1)N1CCC(F)(F)[C@@H](c2ccc(=O)[nH]c2)C1 (single isomer, unassigned) [Compound 507] | 130% | – | –
C[C@@H](C(=O)Nc1cn2c(n1)CC[C@@H]2c1cc(F)cc(F)c1)N1CCC(F)(F)[C@@H](c2c[nH]c(=O)c([C@H](N)C(F)F)c2)C1 (single isomer, unassigned) [Compound 536] | 89% | – | –
C[C@@H](C(=O)Nc1cn2c(n1)CC[C@@H]2c1cc(F)cc(F)c1)N1CCC(F)(F)[C@H](c2c[nH]c(=O)c(C(N)C(F)(F)F)c2)C1 (single isomer, unassigned) [Compound 541] | 11% | – | –
C[C@@H](C(=O)Nc1cn2c(n1)CC[C@@H]2c1cc(F)cc(F)c1)N1CCC(F)(F)[C@H](c2c[nH]c(=O)c(CN3CCC(F)(F)CC3)c2)C1 (single isomer, unassigned) [Compound 543] | 59% | – | –
C[C@@H](C(=O)Nc1cn2c(n1)CC[C@H]2c1ccc(F)cc1F)N1CCC(F)(F)[C@@H](c2ccc(=O)[nH]c2)C1 (single isomer, unassigned) [Compound 506] | – | 30 nM | –
C[C@@H](C(=O)Nc1cn2c(n1)CC[C@@H]2c1cc(F)cc(F)c1)N1CCC(F)(F)[C@@H](c2c[nH]c(=O)c([C@@H](N)C(F)F)c2)C1 (single isomer, unassigned) [Compound 538] | 81% | – | –
C[C@@H](C(=O)Nc1cn2c(n1)CC[C@H]2c1cc(F)cc(F)c1)N1CCC(F)(F)CC1 (single isomer, unassigned) [Compound 510] | 87% | – | –
C[C@@H](C(=O)Nc1cn2c(n1)CC[C@H]2c1cc(F)ccc1F)N1CCC(F)(F)[C@@H](c2ccc(=O)[nH]c2)C1 (single isomer, unassigned) [Compound 504] | 13% | 31 nM | –
C[C@H](C(=O)Nc1cn2c(n1)CC[C@@H]2c1cc(F)cc(F)c1)N1CCCCC1 (single isomer, unassigned) [Compound 498] | – | 79 nM | 686 nM
C[C@@H](C(=O)Nc1cn2c(n1)CC[C@@H]2c1cc(F)cc(F)c1)N1CCC(F)(F)C(c2c[nH]c(=O)c(C(O)CO)c2)C1 (stereo partly drawn) [Compound 546, (2S)—N—((R)-5-(3,5-difluorophenyl)-6,7-dihydro-5H-pyrrolo[1,2-a]imidazol-2-yl)-2-(3-(5-(1,2-dihydroxyethyl)-6-oxo-1,6-dihydropyridin-3-yl)-4,4-difluoropiperidin-1-yl)propanamide] | 34% | – | –
C[C@@H](C(=O)Nc1cn2c(n1)CC[C@@H]2c1ccc(F)cc1F)N1CCC(F)(F)[C@@H](c2ccc(=O)[nH]c2)C1 (single isomer, unassigned) [Compound 505] | 106% | > 3000 nM | –
C[C@@H](C(=O)Nc1cn2c(n1)CC[C@@H]2c1cc(F)cc(F)c1)N1CCC(F)(F)C(c2cc[n+]([O-])c(C(O)CO)c2)C1 (stereo partly drawn) [Compound 545, 4-(1-((S)-1-(((R)-5-(3,5-difluorophenyl)-6,7-dihydro-5H-pyrrolo[1,2-a]imidazol-2-yl)amino)-1-oxopropan-2-yl)-4,4-difluoropiperidin-3-yl)-2-(1,2-dihydroxyethyl)pyridine 1-oxide] | 16% | – | –
C[C@@H](C(=O)Nc1cn(Cc2cc(F)cc(F)c2)c(C(F)F)n1)N1CCC(F)(F)[C@@H](c2c[nH]c(=O)c(CO)c2)C1 (single isomer, unassigned) [Compound 490] | – | 34 nM | 3.5 nM
C[C@@H](C(=O)Nc1cn2c(n1)CC[C@H]2c1cc(F)cc(F)c1)N1CCCCC1 (single isomer, unassigned) [Compound 500] | – | > 3000 nM | > 30000 nM
C[C@@H](C(=O)Nc1cn2c(n1)CC[C@@H]2c1cc(F)cc(F)c1)N1CCC(F)(F)[C@@H](c2c[nH]c(=O)c(CN3CCC(F)(F)CC3)c2)C1 (single isomer, unassigned) [Compound 542] | 126% | – | –
C[C@@H](C(=O)Nc1cc2n(n1)CC[C@@H]2c1cc(F)cc(F)c1)N1CCC(F)(F)[C@@H](c2ccc(=O)[nH]c2)C1 (single isomer, unassigned) [Compound 530] | – | 0.81 nM | –
C[C@@H](C(=O)Nc1cn2c(n1)CC[C@@H]2c1cc(F)ccc1F)N1CCC(F)(F)[C@@H](c2ccc(=O)[nH]c2)C1 (single isomer, unassigned) [Compound 503] | 105% | – | –
C[C@H](C(=O)Nc1cn2c(n1)CC[C@H]2c1cc(F)cc(F)c1)N1CCCCC1 (single isomer, unassigned) [Compound 499] | – | > 3000 nM | > 30000 nM
C[C@@H](C(=O)Nc1cn2c(n1)CC[C@@H]2c1cc(F)cc(F)c1)N1CCC(F)(F)[C@@H](c2ccc(=O)[nH]c2)C1 (single isomer, unassigned) [Compound 493] | – | > 3000 nM | > 30000 nM
C[C@@H](C(=O)Nc1cn2c(n1)CC[C@@H]2c1cc(F)cc(F)c1)N1CCC(F)(F)C(c2c[nH]c(=O)c(CO)n2)C1 (stereo partly drawn) [Compound 544, (2S)-2-(4,4-difluoro-3-(6-(hydroxymethyl)-5-oxo-4,5-dihydropyrazin-2-yl)piperidin-1-yl)-N—((R)-5-(3,5-difluorophenyl)-6,7-dihydro-5H-pyrrolo[1,2-a]imidazol-2-yl)propanamide] | 81% | – | –
C[C@@H](C(=O)Nc1cn2c(n1)CCC[C@H]2c1cc(F)cc(F)c1)N1CCC(F)(F)[C@@H](c2ccc(=O)[nH]c2)C1 (single isomer, unassigned) [Compound 508] | 110% | – | –
C[C@@H](C(=O)Nc1nc2n(n1)[C@H](c1cc(F)cc(F)c1)CC2)N1CCC(F)(F)[C@@H](c2ccc(=O)[nH]c2)C1 (single isomer, unassigned) [Compound 502] | 44% | – | –
C[C@@H](C(=O)Nc1cn2c(n1)CC[C@@H]2c1cc(F)cc(F)c1)N1CCC(F)(F)[C@H](c2c[nH]c(=O)c([C@@H](N)C(F)F)c2)C1 (single isomer, unassigned) [Compound 539] | 12% | – | –
O=C(Nc1cn(Cc2cc(F)cc(F)c2)cn1)[C@H]1C(F)(F)C12CCC2 [Compound 30, (S)—N-(1-(3,5-difluorobenzyl)-1H-imidazol-4-yl)-2,2-difluorospiro[2.3]hexane-1-carboxamide] | – | – | 258 nM
